# Tested on: chronic sinusitis
# Assay: Patient Case 1: self-reported Health Related Quality of Life Scale and symptoms
# Type: in vivo, human
# Conditions: treatments before the invention regime
# Text: Person in good health, whose daily med profile includes • Taking one statin generic drug daily • Taking one over the counter multiple vitamin daily • On average two medical exams each year • No diagnosed medical conditions or concerns
# Symptoms—blocked nasal passages especially on the right side of the face, continuous hardened yellow translucent pus discharge from right nostril, minor periodic bleeding, nasal sound quality of voice, a propensity for cold virus to linger and a whistle sound while breathing through the nostrils.
# The Kaiser treatment program consisted of a saline rinse bulb and recommendation of daily saline sinus rinsing along with a nasal steroid spray available over the counter. […] The patient continued occasional use of the regimen over the following 15 years with no noticeable improvement.
# Treatment began on Mar. 9, 2016 with a new and unique product. The formulation used is Composition 1 in the Formulation Example.
# Initial treatment was for 14 days, one dose daily in each nostril, approximately ¼ ounce (7.3 milliliters) administered with a nose dropper while the patient was lying down with chin inclined upward—sometimes with head over the edge of bed or pillow to increase the incline of the forehead to be lower than the chin. The patient remained unmoving for five minutes with no blowing of the nose to allow gravity saturation to reach the deep passages. […]
structure (smiles),measurement,value
CC1(C)S[C@@H]2[C@H](NC(=O)[C@H](N)c3ccc(O)cc3)C(=O)N2[C@H]1C(=O)O [amoxicillin],relief of sinusitis symptoms under earlier treatments,no relief from the sinusitis

# — US20180147140A1, “Treatment and Prevention of ENT Infections” (priority 2016, published 2018)
